Key:
Type in all cases: in vivo
Abutilon theophrasti = test: Post-emergence herbicidal action; settings: application rate 20 g/ha, rated visually after about 3 weeks vs untreated controls
Method: (§1) a. Post-Emergence Herbicidal Action and Crop Plant Compatibility Seeds of monocotyledonous and dicotyledonous weeds and crop plants were placed in sandy loam in plastic or wood-fiber pots, covered with soil and cultivated in a greenhouse under controlled growth conditions. 2 to 3 weeks after sowing, the test plants were treated at the one-leaf stage. The compounds of the invention, formulated in the form of wettable powders (WP) or as emulsion concentrates (EC), were then sprayed onto the green parts of the plants as aqueous suspension or emulsion with addition of 0.5% additive at a water application rate of 600 l/ha (converted). After the test plants had been kept in the greenhouse under optimum growth conditions for about 3 weeks, the activity of the preparations was rated visually in comparison to untreated controls. For example, 100% activity=the plants have died, 0% activity=like control plants. Tables A1 to A15 below show the effects of selected compounds of the general formula (I) according to Tables I.1 to I.36 on various harmful plants and at an application rate corresponding to 20 g/ha and less, which were obtained by the experimental procedure mentioned above.

Alopecurus myosuroides = test: Post-emergence herbicidal action; settings: application rate 20 g/ha, rated visually after about 3 weeks vs untreated controls
Method: as §1

Amaranthus retroflexus = test: Post-emergence herbicidal action; settings: application rate 20 g/ha, rated visually after about 3 weeks vs untreated controls
Method: as §1

Avena fatua = test: Post-emergence herbicidal action; settings: application rate 20 g/ha, rated visually after about 3 weeks vs untreated controls
Method: as §1

Digitaria sanguinalis = test: Post-emergence herbicidal action; settings: application rate 20 g/ha, rated visually after about 3 weeks vs untreated controls
Method: as §1

Echinochloa crus-galli = test: Post-emergence herbicidal action; settings: application rate 20 g/ha, rated visually after about 3 weeks vs untreated controls
Method: as §1

Lolium rigidum = test: Post-emergence herbicidal action; settings: application rate 20 g/ha, rated visually after about 3 weeks vs untreated controls
Method: as §1

Matricaria inodora = test: Post-emergence herbicidal action; settings: application rate 20 g/ha, rated visually after about 3 weeks vs untreated controls
Method: as §1

Pharbitis purpurea = test: Post-emergence herbicidal action; settings: application rate 20 g/ha, rated visually after about 3 weeks vs untreated controls
Method: as §1

Polygonum convolvulus = test: Post-emergence herbicidal action; settings: application rate 20 g/ha
Method: as §1

Setaria viridis = test: Post-emergence herbicidal action; settings: application rate 20 g/ha, rated visually after about 3 weeks vs untreated controls
Method: as §1

Veronica persica = test: Post-emergence herbicidal action; settings: application rate 20 g/ha
Method: as §1

Viola tricolor = test: Post-emergence herbicidal action; settings: application rate 20 g/ha
Method: as §1

Oryza sativa = test: Post-emergence crop plant compatibility; settings: application rate 20 g/ha
Method: a. Post-Emergence Herbicidal Action and Crop Plant Compatibility
as §1, with “Seeds” for “a. Post-Emergence Herbicidal Action and Crop Plant Compatibility Seeds”, “plants.” for “plants. Tables A1 to A15 below show the effects of selected compounds of the general formula (I) according to Tables I.1 to I.36 on various harmful plants and at an application rate corresponding to 20 g/ha and less, which were obtained by the experimental procedure mentioned above.”
Tables A16 to A19 below show the crop plant compatibilities of selected compounds of the general formula (I) according to Tables I.1 to I.36 at an application rate corresponding to 5 g/ha or 20 g/ha, which were obtained in experiments according to the experimental procedure mentioned above. Here, the observed effects on selected crop plants are stated in comparison to the untreated controls (values in %).

Row | Structure (SMILES) | Abutilon theophrasti (efficacy in %) (Abutilon theophrasti) | Alopecurus myosuroides (efficacy in %) (Alopecurus myosuroides) | Amaranthus retroflexus (efficacy in %) (Amaranthus retroflexus) | Avena fatua (efficacy in %) (Avena fatua) | Digitaria sanguinalis (efficacy in %) (Digitaria sanguinalis) | Echinochloa crus-galli (efficacy in %) (Echinochloa crus-galli) | Lolium rigidum (efficacy in %) (Lolium rigidum) | Matricaria inodora (efficacy in %) (Matricaria inodora) | Pharbitis purpurea (efficacy in %) (Pharbitis purpurea) | Polygonum convolvulus (efficacy in %) (Polygonum convolvulus) | Setaria viridis (efficacy in %) (Setaria viridis) | Veronica persica (efficacy in %) (Veronica persica) | Viola tricolor (efficacy in %) (Viola tricolor) | Oryza sativa (efficacy in %) (Oryza sativa)
1 | CCS(=O)(=O)NCCOC(=O)COc1ncccc1Oc1cc(-n2c(=O)cc(C(F)(F)F)n(C)c2=O)c(F)cc1Cl [I.15-421] | 100% | 100% | 100% | 100% | 100% | 100% | 100% | 100% | 100% | 100% | 100% | 100% | 100% | –
2 | CCOC(COC(=O)COc1ncccc1Oc1cc(-n2c(=O)cc(C(F)(F)F)n(C)c2=O)c(F)cc1Cl)OCC [I.15-422] | 100% | 100% | 100% | 80% | 100% | 100% | 100% | 100% | 100% | 100% | 100% | 100% | 100% | –
3 | COCCOC(=O)COc1ncccc1Oc1cc(-n2c(=O)cc(C(F)(F)F)n(C)c2=O)c(F)cc1Br [I.16-1] | 100% | 100% | 100% | 90% | 100% | 100% | 90% | 100% | 100% | 100% | 100% | 100% | 100% | –
4 | CCOCCOC(=O)COc1ncccc1Oc1cc(-n2c(=O)cc(C(F)(F)F)n(C)c2=O)c(F)cc1Br [I.16-2] | 100% | 100% | 100% | 100% | 100% | 100% | 100% | 100% | 100% | 100% | 100% | 100% | 100% | –
5 | COCCOCCOC(=O)COc1ncccc1Oc1cc(-n2c(=O)cc(C(F)(F)F)n(C)c2=O)c(F)cc1Br [I.16-23] | 100% | 100% | 100% | 100% | 100% | 100% | 100% | 100% | 100% | 100% | 100% | 100% | 100% | –
6 | Cn1c(C(F)(F)F)cc(=O)n(-c2cc(Oc3cccnc3OCC(=O)OCC3CCCO3)c(Br)cc2F)c1=O (stereo not shown) [I.16-71] | 100% | 100% | 100% | 90% | 100% | 100% | 90% | 100% | 100% | 100% | 100% | 100% | 100% | –
7 | Cn1c(C(F)(F)F)cc(=O)n(-c2cc(Oc3cccnc3OCC(=O)OCC#N)c(Br)cc2F)c1=O [I.16-176] | 100% | 100% | 100% | 90% | 100% | 100% | 80% | 100% | 100% | 90% | 100% | 100% | 100% | –
8 | Cn1c(C(F)(F)F)cc(=O)n(-c2cc(Oc3cccnc3OCC(=O)OCC3OCCO3)c(Br)cc2F)c1=O [I.16-424] | 100% | 100% | 100% | 90% | 100% | 100% | 80% | 100% | 100% | 100% | 100% | 100% | 100% | –
9 | COCCOCCOC(=O)COc1ncc(F)cc1Sc1cc(-n2c(=O)cc(C(F)(F)F)n(C)c2=O)c(F)cc1Cl [I.31-23, 2-(2-Methoxyethoxy)ethyl {[3-({5-[3-methyl-2,6-dioxo-4-(trifluoromethyl)-3,6-dihydropyrimidin-1(2H)-yl]-2-chloro-4-fluorophenyl}sulfanyl)-5-fluoropyridin-2-yl]oxy}acetate] | 100% | 90% | 100% | – | 100% | 100% | – | 100% | 100% | – | 100% | 100% | 100% | 20%
10 | COCCOC(=O)COc1ncccc1Oc1cc(-n2c(=O)cc(C(F)(F)F)n(C)c2=O)c(F)cc1C#N [I.35-1] | 100% | 100% | 100% | 100% | 100% | 100% | 80% | 100% | 100% | 100% | 100% | 100% | 100% | –
11 | COCCOC(=O)COc1ncc(F)cc1Oc1cc(-n2c(=O)cc(C(F)(F)F)n(C)c2=O)c(F)cc1Cl [I.36-1] | 100% | 100% | 100% | 100% | 100% | 100% | 90% | 100% | 100% | 100% | 100% | 100% | 100% | –
12 | Cn1c(C(F)(F)F)cc(=O)n(-c2cc(Oc3cc(F)cnc3OCC(=O)OCc3ccccn3)c(Cl)cc2F)c1=O [I.36-286] | 100% | 100% | 100% | 80% | 100% | 100% | 80% | 90% | 100% | 100% | 100% | 100% | 100% | –
